This series relates to peripheral blood lymphocytes. Kind of series: Cytokinesis-block micronucleus (CBMN) assay, spontaneous and NNK-induced chromosomal damage (MN, NPBs, NBUDs). The conditions noted are these: 0.24 mM NNK, 2 hours. The series is classed as cell-based, human. As for the experimental part: The CBMN test was performed using the cytochalasin B technique described by Fenech and Morley and following recommendations from The International Collaborative Project on Micronucleus Frequency in Human Populations (HUMN Project) (22) to measure MN, NPBs and NBUDs in untreated cells and NNK-treated cells. Duplicate lymphocyte cultures were prepared for each study subject. Each culture contained 2.0×10^6 cells in 5 mL RPM1 1640 medium supplemented with 100 U/mL penicillin, 100 μg/mL streptomycin, 10% fetal bovine serum, and 2 mM L-glutamine (Gibco-Invitrogen, Carlsbad, Calif.) and 1% phytohemagglutinin (Remel, Lenexa, Kans.). For the cultures treated with NNK, 24 hours after initiation, the PBLs were centrifuged and the supernatant growth medium was removed and reserved. The PBLs were resuspended in 5 mL of serum-free RPM1 1640 medium supplemented with 0.24 mM NNK (CAS No 64091-91-4, National Cancer Institute, Midwest Carcinogen Repository, Kansas City, Mo.) and incubated at 37° C. in the presence of 5% COz for 2 hours. Next, the PBLs were washed twice with serum-free RPM1 1640, transferred to clean tubes and re-incubated for 48 hours in the reserved supernatant At 44 hours after initiation, cells were blocked in cytokinesis by adding cytochalasin B (Sigma, St Louis, Mo.; final concentration 4 μg/mL). Similarly, cultures for the determination of spontaneous damage (untreated cells) were handled in the same manner, with the exception of treatment with NNK. The total incubation time for all cultures was 72 hours. After incubation, the cells were fixed in 3:1 methanol:glacial acetic acid, dropped onto clean microscopic slides, air-dried and stained with Giemsa stain. For each sample, 1000 binucleated cells were scored blindly using a Nikon E-400 light optical microscope following the scoring criteria outlined by HUMN Project (2,11,23); the numbers of MN, NPBs, and NBUDs per 1000 binucleated cells were recorded For quality control, 20% of the slides were randomly selected and blindly rescored and the results compared with the original scoring
Tobacco smoke carcinogens and individual susceptibility play key roles in determining risk of lung cancer. There are a variety of biomarkers evaluating susceptibility to the carcinogenic effects of benzo[a]pyrene; however, no assays specifically evaluate susceptibility to the nicotine-derived nitrosamine 4-(methylnitrosamino)-1-(3-pyridyl)-1-butanone (NNK), a potent inducer of lung adenocarcinoma. In this case-control study, the inventors modified the cytokinesis-block micronucleus (CBMN) assay, an established biomarker for DNA damage and genomic instability, to evaluate susceptibility to NNK by measuring the frequency of NNK-induced chromosomal damage endpoints (micronuclei [MN]; nucleoplasmic bridges [NPBs] and nuclear buds “BUDS]) per 1000 binucleated peripheral blood lymphocytes. […] Forty-seven percent of the cases (compared with 12% of the controls) had ≧4 spontaneous MN, 66% of the cases (and no controls) had ≧4 spontaneous NPBs, and 25% of cases (versus 5% of controls) had ≧1 spontaneous NBUDs (P<001). Similarly, 40% of the cases (versus 6% of the controls) had ≧5 NNK-induced MN, 89% of the cases (and no controls) had ≧6 induced NPBs, and 23% of the cases (vs 2% of the controls had 2 induced NBUDs (P<001). As continuous variables, spontaneous MN, NPBs and NBUDs were associated with 2-, 29-, and 6-fold increases in risk for cancer. Similarly, NNK-induced 2 3-, 45.5-, and 10-fold increases in risk for cancer. The inventors also evaluated the use of results from the CBMN assay to predict cancer risk based on the numbers of MN, NPBs, and NBUDs defined by percentile cut-points in control data. The probability of being a cancer patient were 96%, 98% and 100% when using the 95th percentiles of spontaneous and NNK-induced MN, NPBs and NBUDs, respectively, in combination. […]

`CN(CCCC(=O)c1cccnc1)N=O` [NNK, 4-(methylnitrosamino)-1-(3-pyridyl)-1-butanone]: under “lung cancer cases (139)”, the “subjects with 2 induced NBUDs per 1000 binucleated peripheral blood lymphocytes” value is reported as 23%, the “subjects with ≧5 NNK-induced MN per 1000 binucleated peripheral blood lymphocytes” value was determined as 40% and the “subjects with ≧6 induced NPBs per 1000 binucleated peripheral blood lymphocytes” value is on record as 89%. In addition, for the setting “matched controls (130)”, the “subjects with 2 induced NBUDs per 1000 binucleated peripheral blood lymphocytes” value amounted to 2%, the “subjects with ≧5 NNK-induced MN per 1000 binucleated peripheral blood lymphocytes” value was found to be 6% and the “subjects with ≧6 induced NPBs per 1000 binucleated peripheral blood lymphocytes” value is given as “no controls”.

(Values after patent US20110189670A1, “Circulating Tumor and Tumor Stem Cell Detection Using Genomic Specific Probes” (priority 2008, published 2011).)
